Key:
[1] = 52-week repeated dose oral toxicity study in beagle dogs: food consumption; format: in vivo
Protocol: (§1) A 52-week repeated dose oral toxicity study with 13-week recovery was carried out in beagle dogs for R228060 (Formula Ib). Body weight and food consumption were monitored throughout the study (see Table 1).

[2] = nonclinical studies in mice, rats, and dogs: body weight and food consumption; format: in vivo
[3] = 6-week randomized, double blind, active and placebo-controlled study in adult subjects with major depressive disorder: body weight; format: in vivo, Humans; conditions: for Mean weight loss / Subjects with weight Decrease ≥7% / Subjects with weight Increase <7% / Subjects with weight Increase ≥7% / Subjects with weight No change/decrease <7% / Weight, Change from Baseline, Mean / Weight, Change from Baseline, Median: baseline to endpoint; for Weight, End point, Mean / Weight, End point, Median: 6-week study
Protocol: A 6-week randomized, double blind, parallel group, active and placebo-controlled study was carried out to assess the efficacy of R228060 in adult subjects with major depressive disorder (MDD). Body weight was monitored throughout the study.

[4] = classic rat self-administration model
[5] = 6-month repeated dose oral toxicity study with 3-month recovery in rats: body weight; format: in vivo; conditions: for Body weight gain (in words) / Body weight (in words): p<0.05-0.001; for Body weight after cessation of treatment (in words): recovery period; for Decreases in body weight gain at the end of the treatment period: conclusion over dose levels
Protocol: (§2) A 6-month repeated dose oral toxicity study with 3-month recovery was carried out in rats for R228060 (Formula Ib). Body weight and food consumption were monitored throughout the study.

[6] = 52-week repeated dose oral toxicity study with 13-week recovery in beagle dogs: body weight; format: in vivo; conditions: for Body weight variation during the treatment-free period only (value in brackets, Table 1): Day 455
Protocol: as §1

[7] = 6-month repeated dose oral toxicity study in rats: food consumption; format: in vivo
Protocol: as §2

[8] = female rats, 600/450 mg HCl-salt/kg
[9] = male rats, 600/450 mg HCl-salt/kg

NC(=O)OC[C@H](N)Cc1ccccc1 [Formula R228060, (R)-(beta-amino-benzenepropyl) carbamate]
Food consumption (in words) ([1]; all female dogs, 50 mg/kg bw/day, first week of treatment): lower food consumption, which was marked for 3/6 animals
Food consumption during the treatment-free period (in words) ([1]; dogs, any animal): No effect on food consumption
Lower food consumption ([1]; female dogs, 25 mg/kg bw/day, first week of treatment): −25 to −50 % of the daily portion
Reduced food consumption ([1]; male dogs, 50 mg/kg bw/day, mainly first week of treatment): about −50 % of the daily portion
Reduced food consumption compared to control ([1]; one male dog, 25 mg/kg bw/day, first week of treatment): about −40%
Slightly lower food consumption ([1]; three out of four female dogs, 10 mg/kg bw/day, first week of treatment): about −25 % of the daily portion
Body weight, body weight gain and food consumption (in words) [2]: decreases in body weight and/or body weight gain as well as reductions in food consumption
Weight relative to placebo treated patients (in words) ([3]; 6-week clinical study in major depressive disorder patients): dose-related decrease in weight relative to placebo treated patients
Number of subjects with a decrease in weight of 7% or more ([3]; 200-mg group): 1 subjects
Percentage of subjects with a decrease in weight of 7% or more ([3]; 200-mg group): 0.9%
Mean weight loss ([3]; 200-mg group): 0.6 kg
Number of subjects with a decrease in weight of 7% or more ([3]; 400-mg group): 3 subjects
Percentage of subjects with a decrease in weight of 7% or more ([3]; 400-mg group): 2.5%
Mean weight loss ([3]; 400-mg group): 0.9 kg
Mean change from baseline to endpoint in BMI ([3]; R228060 200 mg): −0.2 kg/m^2
Subjects with weight Decrease ≥7% ([3]; R228060 200 mg (N = 116)): 1 (0.9) n (%)
Subjects with weight Increase <7% ([3]; R228060 200 mg (N = 116)): 39 (33.6) n (%)
Subjects with weight Increase ≥7% ([3]; R228060 200 mg (N = 116)): 1 (0.9) n (%)
Subjects with weight No change/decrease <7% ([3]; R228060 200 mg (N = 116)): 75 (64.7) n (%)
Weight, End point, Mean ([3]; R228060 200 mg group): 85.4 kg
Weight, End point, Median ([3]; R228060 200 mg group): 83.4 kg
Weight, Change from Baseline, Mean ([3]; R228060 200 mg group): -0.6 kg
Weight, Change from Baseline, Median ([3]; R228060 200 mg group): -0.5 kg
Mean change from baseline to endpoint in BMI ([3]; R228060 400 mg): −0.3 kg/m^2
Subjects with weight Decrease ≥7% ([3]; R228060 400 mg (N = 120)): 3 (2.5) n (%)
Subjects with weight Increase <7% ([3]; R228060 400 mg (N = 120)): 27 (22.5) n (%)
Subjects with weight Increase ≥7% ([3]; R228060 400 mg (N = 120)): 0 n (%)
Subjects with weight No change/decrease <7% ([3]; R228060 400 mg (N = 120)): 90 (75.0) n (%)
Weight, End point, Mean ([3]; R228060 400 mg group): 83.2 kg
Weight, End point, Median ([3]; R228060 400 mg group): 78.9 kg
Weight, Change from Baseline, Mean ([3]; R228060 400 mg group): -0.9 kg
Weight, Change from Baseline, Median ([3]; R228060 400 mg group): -0.9 kg
Reporting of anorexia (in words) ([3]; compound-treated groups, 6-week clinical study): increase in reporting of anorexia
Abuse potential: reinforcing properties (in words) [4]: not reinforcing
Body weight and body weight gain (in words) ([5]; female rats, 35 mg HCl-salt/kg body weight/day oral for 6 consecutive months): did not adversely affect body weight and body weight gain
Body weight gain decreased compared to the control group ([5]; female rats, 300 mg HCl-salt/kg body weight/day oral, week 13): 15%
Body weight gain decreased compared to the control group ([5]; female rats, 300 mg HCl-salt/kg body weight/day oral, week 26): 23%
Body weight gain (in words) ([5]; female rats, 300 mg HCl-salt/kg body weight/day, especially towards end of dosing period): moderate to pronounced decrease
Body weight (in words) ([5]; female rats, 300 mg HCl-salt/kg body weight/day): moderately decreased body weight
Remaining body weight difference at the end of the recovery period compared to control animals (in words) [5, 8]: only slightly lower
Body weight gain decreased ([5]; female rats, 600/450 mg HCl-salt/kg body weight/day oral, week 13): 18%
Body weight gain decreased ([5]; female rats, 600/450 mg HCl-salt/kg body weight/day oral, week 26): 21%
Body weight gain (in words) ([5]; female rats, 600/450 mg HCl-salt/kg body weight/day, from first week of dosing): moderate to pronounced decrease in body weight gain
Body weight (in words) ([5]; female rats, 600/450 mg HCl-salt/kg body weight/day): moderately decreased body weight
Body weight after cessation of treatment (in words) [5, 8]: partial regain of their normal body weight
Decreases in body weight gain at the end of the treatment period ([5]; female rats): ≤ 21%
Body weight gain decreased ([5]; male rats, 35 mg HCl-salt/kg body weight/day oral, week 13, vs control): 6%
Body weight gain decreased ([5]; male rats, 35 mg HCl-salt/kg body weight/day oral, week 26, vs control): 5%
Body weight and weight gain (in words) ([5]; male rats, 35 mg HCl-salt/kg body weight/day, significant weeks 8-12 (gain) and 10-12 (weight), p<0.05): slightly lower compared to control rats
Body weight gain decreased ([5]; male rats, 300 mg HCl-salt/kg body weight/day oral, week 13): 27%
Body weight gain decreased ([5]; male rats, 300 mg HCl-salt/kg body weight/day oral, week 26): 24%
Body weight and body weight gain (in words) ([5]; male rats, 300 mg HCl-salt/kg body weight/day, from first week of dosing, p<0.001): pronounced decrease in body weight and body weight gain
Body weight at the end of the three month recovery period compared to control animals (in words) [5, 9]: still moderately lower
Body weight gain decreased ([5]; male rats, 600/450 mg HCl-salt/kg body weight/day oral, week 13): 33%
Body weight gain decreased ([5]; male rats, 600/450 mg HCl-salt/kg body weight/day oral, week 26): 32%
Body weight and body weight gain (in words) ([5]; male rats, 600/450 mg HCl-salt/kg body weight/day, from week 1 onwards, p<0.001): pronounced decrease in body weight and body weight gain
Body weight after cessation of treatment (in words) [5, 9]: partial regain of their normal (control) body weight
Decreases in body weight gain at the end of the treatment period ([5]; male rats): up to 32%
Body weights and body weight gains (conclusion in words) ([5]; rats, starting at 35 mg HCl-salt/kg body weight/day for males and 300 for females): dose-related decrease
Body weight change (Table 1) ([6]; dogs, 10 mg/kg bw/day, females, Day 4): −6%
Body weight change (Table 1) ([6]; dogs, 10 mg/kg bw/day, females, Day 21): −2%
Body weight change (Table 1) ([6]; dogs, 10 mg/kg bw/day, females, Day 182): +26%
Body weight change (Table 1) ([6]; dogs, 10 mg/kg bw/day, females, Day 364): +25%
Body weight change (Table 1) ([6]; dogs, 10 mg/kg bw/day, males, Day 4): −1%
Body weight change (Table 1) ([6]; dogs, 10 mg/kg bw/day, males, Day 21): 0%
Body weight change (Table 1) ([6]; dogs, 10 mg/kg bw/day, males, Day 182): +22%
Body weight change (Table 1) ([6]; dogs, 10 mg/kg bw/day, males, Day 364): +32%
Body weight change (Table 1) ([6]; dogs, 25 mg/kg bw/day, females, Day 4): −7%
Body weight change (Table 1) ([6]; dogs, 25 mg/kg bw/day, females, Day 21): −4%
Body weight change (Table 1) ([6]; dogs, 25 mg/kg bw/day, females, Day 182): +16%
Body weight change (Table 1) ([6]; dogs, 25 mg/kg bw/day, females, Day 364): +26%
Body weight change (Table 1) ([6]; dogs, 25 mg/kg bw/day, males, Day 4): −4%
Body weight change (Table 1) ([6]; dogs, 25 mg/kg bw/day, males, Day 21): −4%
Body weight change (Table 1) ([6]; dogs, 25 mg/kg bw/day, males, Day 182): +71%
Body weight change (Table 1) ([6]; dogs, 25 mg/kg bw/day, males, Day 364): +19%
Body weight change (Table 1) ([6]; dogs, 50 mg/kg bw/day, females, Day 4): −9%
Body weight change (Table 1) ([6]; dogs, 50 mg/kg bw/day, females, Day 21): −12%
Body weight change (Table 1) ([6]; dogs, 50 mg/kg bw/day, females, Day 182): +11%
Body weight change (Table 1) ([6]; dogs, 50 mg/kg bw/day, females, Day 364): +9%
Body weight variation during the treatment-free period only (value in brackets, Table 1) ([6]; dogs, 50 mg/kg bw/day, females): +26% (+26%)
Body weight change (Table 1) ([6]; dogs, 50 mg/kg bw/day, females, Day 455 (end of treatment-free period)): +26% (+26%)
Body weight change (Table 1) ([6]; dogs, 50 mg/kg bw/day, males, Day 4): −9%
Body weight change (Table 1) ([6]; dogs, 50 mg/kg bw/day, males, Day 21): −12%
Body weight change (Table 1) ([6]; dogs, 50 mg/kg bw/day, males, Day 182): +7%
Body weight change (Table 1) ([6]; dogs, 50 mg/kg bw/day, males, Day 364): +9%
Body weight variation during the treatment-free period only (value in brackets, Table 1) ([6]; dogs, 50 mg/kg bw/day, males): +6%
Body weight change (Table 1) ([6]; dogs, 50 mg/kg bw/day, males, Day 455 (end of treatment-free period)): +12%
Mean body weight gain compared to control (in words) ([6]; dogs, treated groups, days 182 and 364): lower does-relative mean body weight gain
Day on which weight returned to the initial weight ([6]; female dogs, 10 mg/kg bw/day): 28 days
Mean body weight loss ([6]; female dogs, 10 mg/kg bw/day, first 4 days of treatment): 0.4 kg
Day on which weight returned to the initial weight ([6]; female dogs, 25 mg/kg bw/day): 42 days
Mean body weight loss ([6]; female dogs, 25 mg/kg bw/day, first 4 days of treatment): 0.5 kg
Mean body weight loss ([6]; female dogs, 50 mg/kg bw/day, first 4 days of treatment): 0.7 kg
Body weight gain during the treatment-free period compared to controls (in words) ([6]; group 4 females): higher body weight gain
Body weight gain during the treatment-free period compared to controls (in words) ([6]; group 4 males): only slightly higher
Day on which weight returned to the initial weight ([6]; high dose female group (50 mg/kg bw/day)): 77 days
Mean body weight loss ([6]; high dose female group (50 mg/kg bw/day), day 21): 0.8 kg
Day on which weights returned to the initial values ([6]; high dose male group (50 mg/kg bw/day)): 126 days
Mean body weight loss ([6]; high dose male group (50 mg/kg bw/day), day 21): 0.8 kg
Day on which weights returned to initial weights ([6]; male dogs, 25 mg/kg bw/day): 35 days
Mean body weight loss ([6]; male dogs, 25 mg/kg bw/day, first 4 days of treatment): 0.3 kg
Mean body weight loss ([6]; male dogs, 50 mg/kg bw/day, first 4 days of treatment): 0.7 kg
Statistically significant increases in food consumption (assessment in words) ([7]; female rats, 35, 300 and 600/450 mg HCl-salt/kg body weight level): toxicologically irrelevant
Food consumption (significance, in words) ([7]; rats, 300 and 600/450 mg HCl-salt/kg body weight level): statistically significant decreases
Food consumption (in words) ([7]; rats, both sexes, first weeks of dosing, starting at 35 mg HCl-salt/kg body weight/day for males and 300 for females): dose-related decrease in food consumption
Abuse potential: rewarding properties (in words) (place preference model): no significant rewarding properties

Source: US12201601B2, “Treatment for obesity” (Axsome Malta Ltd., priority 2013, dated 2025)
